Test results as given in patent US10251892B2, “Bicyclic heterocycles as FGFR4 inhibitors” (Incyte Corporation, priority 2015, dated 2019).

Columns and labels:
FGFR3 enzyme = FGFR3 enzyme (Homo sapiens (Human), UniProt P22607); experiment: FGFR Enzymatic Assay (peptide phosphorylation, FRET), FGFR3; format: biochemical; conditions: IC50 ratio showing FGFR3 selectivity; pre-incubated for 4 hours
Description: (§1) The inhibitor potency of the exemplified compounds was measured in an enzyme assay that measures peptide phosphorylation using FRET measurements to detect product formation. Inhibitors were serially diluted in DMSO and a volume of 0.5 μL was transferred to the wells of a 384-well plate.
(§2) GraphPad prism3 was used to analyze the data.

FGFR4 = FGFR4 (Homo sapiens (Human), UniProt P22455); experiment: FGFR Enzymatic Assay (peptide phosphorylation, FRET), FGFR4; format: biochemical
Description: as §1
The enzymes were purchased from Millipore or Invitrogen.
as §2

[1] = IC50 ratio showing FGFR4 selectivity, pre-incubated for 4 hours
[2] = ratio of IC50 data showing FGFR4 selectivity, pre-incubated for 5 to 10 minutes

Sequence of FGFR4 (P22455 22-802): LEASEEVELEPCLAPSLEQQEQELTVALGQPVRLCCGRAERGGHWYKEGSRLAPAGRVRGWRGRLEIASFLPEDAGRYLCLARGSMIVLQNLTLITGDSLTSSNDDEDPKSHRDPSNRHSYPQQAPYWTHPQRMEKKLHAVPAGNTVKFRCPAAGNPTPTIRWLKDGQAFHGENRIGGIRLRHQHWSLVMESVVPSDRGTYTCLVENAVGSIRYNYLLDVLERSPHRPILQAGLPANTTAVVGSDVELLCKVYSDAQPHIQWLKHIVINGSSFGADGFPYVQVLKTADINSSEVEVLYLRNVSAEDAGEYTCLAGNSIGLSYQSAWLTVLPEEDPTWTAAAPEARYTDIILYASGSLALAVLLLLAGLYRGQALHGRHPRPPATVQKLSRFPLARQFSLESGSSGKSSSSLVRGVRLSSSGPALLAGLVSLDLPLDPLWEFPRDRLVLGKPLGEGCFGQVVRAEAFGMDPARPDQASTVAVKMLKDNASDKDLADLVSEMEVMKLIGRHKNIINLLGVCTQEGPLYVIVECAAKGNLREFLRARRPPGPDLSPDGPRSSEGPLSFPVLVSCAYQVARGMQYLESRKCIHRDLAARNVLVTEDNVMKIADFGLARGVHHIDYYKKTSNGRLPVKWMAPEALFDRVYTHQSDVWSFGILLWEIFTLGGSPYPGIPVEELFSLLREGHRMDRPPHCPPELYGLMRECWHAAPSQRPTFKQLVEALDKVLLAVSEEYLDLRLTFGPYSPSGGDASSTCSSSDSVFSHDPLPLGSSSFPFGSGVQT
Sequence of FGFR3 enzyme (P22607 23-806): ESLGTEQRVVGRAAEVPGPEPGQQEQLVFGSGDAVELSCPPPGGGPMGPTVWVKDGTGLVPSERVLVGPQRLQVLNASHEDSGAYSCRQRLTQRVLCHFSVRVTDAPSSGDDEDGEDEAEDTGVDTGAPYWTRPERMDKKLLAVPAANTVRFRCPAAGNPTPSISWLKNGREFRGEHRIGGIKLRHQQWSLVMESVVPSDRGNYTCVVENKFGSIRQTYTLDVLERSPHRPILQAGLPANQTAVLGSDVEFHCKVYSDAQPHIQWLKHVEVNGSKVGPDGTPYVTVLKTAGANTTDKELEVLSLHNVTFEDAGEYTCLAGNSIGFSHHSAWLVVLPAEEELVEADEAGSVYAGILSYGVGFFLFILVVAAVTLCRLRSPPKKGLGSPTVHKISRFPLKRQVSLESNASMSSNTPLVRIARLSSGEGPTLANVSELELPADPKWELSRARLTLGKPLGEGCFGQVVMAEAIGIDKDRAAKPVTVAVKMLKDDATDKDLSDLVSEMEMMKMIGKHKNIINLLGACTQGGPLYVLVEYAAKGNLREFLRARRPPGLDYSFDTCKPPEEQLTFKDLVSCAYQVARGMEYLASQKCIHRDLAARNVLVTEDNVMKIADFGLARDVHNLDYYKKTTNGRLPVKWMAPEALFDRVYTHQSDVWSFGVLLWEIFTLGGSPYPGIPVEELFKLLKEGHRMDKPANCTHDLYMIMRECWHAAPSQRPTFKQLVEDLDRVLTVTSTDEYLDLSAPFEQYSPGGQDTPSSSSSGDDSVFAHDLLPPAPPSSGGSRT

SMILES	FGFR1/FGFR3 (FGFR3 enzyme)	FGFR1/FGFR4 (FGFR4; [1])	FGFR2/FGFR4 (FGFR4; [1])	FGFR3/FGFR4 (FGFR4; [1])	FGFR1/FGFR4 (FGFR4; [2])	FGFR2/FGFR4 (FGFR4; [2])	FGFR3/FGFR4 (FGFR4; [2])	FGFR4/FGFR3 (FGFR3 enzyme)
COc1cc(OC)c(F)c(N2Cc3cnc(-c4cncc(NS(C)(=O)=O)c4)cc3C3(CC3)C2=O)c1F [Example 15, N-(5-(2′-(2,6-difluoro-3,5-dimethoxyphenyl)-3′-oxo-2′,3′-dihydro-1′H-spiro[cyclopropane-1,4′-[2,7]naphthyridine]-6′-yl)pyridin-3-yl)methanesulfonamide]	>3	>50	>25	>10	>50	>25	>10	–
COc1cc(OC)c(F)c(N2Cc3cnc(-c4cc(N)ccc4C#N)cc3C3(CC3)C2=O)c1F [Example 3, 4-amino-2-(2′-(2,6-difluoro-3,5-dimethoxyphenyl)-3′-oxo-2′,3′-dihydro-1′H-spiro[cyclopropane-1,4′-[2,7]naphthyridine]-6′-yl)benzonitrile]	–	>25	>25	>10	>25	>25	>25	–
COc1cc(OC)c(F)c(N2Cc3cnc(-c4nn(CC#N)cc4C#N)cc3C3(CC3)C2=O)c1F [Example 174, 1-(cyanomethyl)-3-(2′-(2,6-difluoro-3,5-dimethoxyphenyl)-3′-oxo-2′,3′-dihydro-1′H-spiro[cyclopropane-1,4′-[2,7]naphthyridine]-6′-yl)-1H-pyrazole-4-carbonitrile]	–	>100	>10	>25	–	–	–	–
COc1cc(OC)c(F)c(N2Cc3cnc(-c4cncc(N)c4)cc3C3(CC3)C2=O)c1F [Example 4, 6′-(5-aminopyridin-3-yl)-2′-(2,6-difluoro-3,5-dimethoxyphenyl)-1′H-spiro[cyclopropane-1,4′-[2,7]naphthyridin]-3′(2′H)-one]	>1	>25	>10	>10	>10	>10	>5	–
COc1cc(OC)c(F)c(N2Cc3cnc(-c4cncc(C(=O)N5CCOCC5)c4)cc3C3(CC3)C2=O)c1F [Example 13, 2′-(2,6-difluoro-3,5-dimethoxyphenyl)-6′-(5-(morpholine-4-carbonyl)pyridin-3-yl)-1′H-spiro[cyclopropane-1,4′-[2,7]naphthyridin]-3′(2′H)-one]	>3	>50	>25	>10	>50	>20	>10	–
COc1cc(OC)c(F)c(N2Cc3cnc(-c4cncc(-n5ccnc5)c4)cc3C3(CC3)C2=O)c1F [Example 12, 6′-(5-(1H-imidazol-1-yl)pyridin-3-yl)-2′-(2,6-difluoro-3,5-dimethoxyphenyl)-1′H-spiro[cyclopropane-1,4′-[2,7]naphthyridin]-3′(2′H)-one]	>3	>50	>25	>10	>50	>25	>20	–
COc1cc(OC)c(F)c(N2Cc3cnc(-c4cncc(Cl)c4)cc3C3(CC3)C2=O)c1F [Example 11, 6′-(5-chloropyridin-3-yl)-2′-(2,6-difluoro-3,5-dimethoxyphenyl)-1′H-spiro[cyclopropane-1,4′-[2,7]naphthyridin]-3′(2′H)-one]	>1	>25	>25	>10	>50	>20	>25	–
COc1cncc(-c2cc3c(cn2)CN(c2c(F)c(OC)cc(OC)c2F)C(=O)C32CC2)c1 [Example 10, 2′-(2,6-difluoro-3,5-dimethoxyphenyl)-6′-(5-methoxypyridin-3-yl)-1′H-spiro[cyclopropane-1,4′-[2,7]naphthyridin]-3′(2′H)-one]	>1	>25	>25	>10	>25	>10	>10	–
COc1cc(OC)c(F)c(N2Cc3cnc(-c4cncc(N5CCOCC5)c4)cc3C3(CC3)C2=O)c1F [Example 6, 2′-(2,6-difluoro-3,5-dimethoxyphenyl)-6′-(5-morpholinopyridin-3-yl)-1′H-spiro[cyclopropane-1,4′-[2,7]naphthyridin]-3′(2′H)-one]	>3	>100	>100	>25	>100	>100	>50	–
COc1cc(OC)c(F)c(N2Cc3cnc(-c4cncc(CN5CCOCC5)c4)cc3C3(CC3)C2=O)c1F [Example 16, 2′-(2,6-difluoro-3,5-dimethoxyphenyl)-6′-(5-(morpholinomethyl)pyridin-3-yl)-1′H-spiro[cyclopropane-1,4′-[2,7]naphthyridin]-3′(2′H)-one]	>1	>50	>25	>10	>25	>10	>10	–
COc1cc(OC)c(F)c(N2Cc3cnc(-c4cncc(S(=O)(=O)N5CCOCC5)c4)cc3C3(CC3)C2=O)c1F [Example 14, 2′-(2,6-difluoro-3,5-dimethoxyphenyl)-6′-(5-(morpholinosulfonyl)pyridin-3-yl)-1′H-spiro[cyclopropane-1,4′-[2,7]naphthyridin]-3′(2′H)-one]	>5	>50	>10	>1	>25	>5	>5	–
COc1cc(OC)c(F)c(N2Cc3cnc(-c4cc(N)c(F)cc4C)cc3C3(CC3)C2=O)c1F [Example 2, 6′-(5-amino-4-fluoro-2-methylphenyl)-2′-(2,6-difluoro-3,5-dimethoxyphenyl)-1′H-spiro[cyclopropane-1,4′-[2,7]naphthyridin]-3′(2′H)-one]	–	>10	>10	>10	>10	>10	>10	–
COc1cc(OC)c(F)c(N2Cc3cnc(-c4nn(CC5CCOCC5)cc4C#N)cc3C3(CC3)C2=O)c1F [Example 173, 3-(2′-(2,6-difluoro-3,5-dimethoxyphenyl)-3′-oxo-2′,3′-dihydro-1′H-spiro[cyclopropane-1,4′-[2,7]naphthyridine]-6′-yl)-1-((tetrahydro-2H-pyran-4-yl)methyl)-1H-pyrazole-4-carbonitrile]	–	>100	>100	>50	–	–	–	–
COc1cc(OC)c(F)c(N2Cc3cnc(-c4cc(N)ccc4C)cc3C3(CC3)C2=O)c1F [Example 1, 6′-(5-amino-2-methylphenyl)-2′-(2,6-difluoro-3,5-dimethoxyphenyl)-1′H-spiro[cyclopropane-1,4′-[2,7]naphthyridin]-3′(2′H)-one]	–	>25	>25	>25	>25	>25	>50	–
COc1cc(OC)c(F)c(N2Cc3cnc(-c4[nH]ncc4C#N)cc3C3(CC3)C2=O)c1F [Example 171, 5-(2′-(2,6-difluoro-3,5-dimethoxyphenyl)-3′-oxo-2′,3′-dihydro-1′H-spiro[cyclopropane-1,4′-[2,7]naphthyridine]-6′-yl)-1H-pyrazole-4-carbonitrile]	–	>10	>10	>10	–	–	–	–
COc1cc(OC)c(F)c(N2Cc3cnc(-c4nn(C)cc4C#N)cc3C3(CC3)C2=O)c1F [Example 172, 3-(2′-(2,6-difluoro-3,5-dimethoxyphenyl)-3′-oxo-2′,3′-dihydro-1′H-spiro[cyclopropane-1,4′-[2,7]naphthyridine]-6′-yl)-1-methyl-1H-pyrazole-4-carbonitrile]	–	>50	>25	>10	–	–	–	–
COc1cc(OC)c(F)c(N2Cc3cnc(-c4cn(C)nc4C)cc3N(Cc3cnn(CC#N)c3)C2=O)c1F [Example 125, 2-(4-((3-(2,6-difluoro-3,5-dimethoxyphenyl)-7-(1,3-dimethyl-1H-pyrazol-4-yl)-2-oxo-3,4-dihydropyrido[4,3-d]pyrimidin-1(2H)-yl)methyl)-1H-pyrazol-1-yl)acetonitrile]	>5	–	–	–	–	–	–	>5
CCN1C(=O)N(c2c(F)c(OC)cc(OC)c2F)Cc2cnc(-c3ccc(C4(C#N)CC4)cc3)cc21 [Example 183, 1-(4-(3-(2,6-difluoro-3,5-dimethoxyphenyl)-1-ethyl-2-oxo-1,2,3,4-tetrahydropyrido[4,3-d]pyrimidin-7-yl)phenyl)cyclopropanecarbonitrile]	>3	–	–	–	–	–	–	>10
COc1cc(OC)c(F)c(N2Cc3cnc(-c4cn(CCCN5CCOCC5)nc4C)cc3C3(CC3)C2=O)c1F [Example 146, 2′-(2,6-difluoro-3,5-dimethoxyphenyl)-6′-(3-methyl-1-(3-morpholinopropyl)-1H-pyrazol-4-yl)-1′H-spiro[cyclopropane-1,4′-[2,7]naphthyridin]-3′(2′H)-one]	>10	–	–	–	–	–	–	>5
COc1cc(OC)c(F)c(N2Cc3cnc(-c4cn(C)nc4C)cc3N(c3cnc(C)cn3)C2=O)c1F [Example 107, 3-(2,6-difluoro-3,5-dimethoxyphenyl)-7-(1,3-dimethyl-1H-pyrazol-4-yl)-1-(5-methylpyrazin-2-yl)-3,4-dihydropyrido[4,3-d]pyrimidin-2(1H)-one]	>3	–	–	–	–	–	–	>10
